From patent US20110070232A1, “Combination Therapy with an Antitumor Alkaloid” (Pharma Mar, S.A., priority 2008, published 2011)
Like-named read-outs stand apart in the source and are kept apart here.

System: MRI-H-254 tumors
Type: in vivo, mice
Procedure: Female athymic nude mice (Harlan Sprague Dawley, Madison, Wis.) were utilized for all experiments. Animals were housed in ventilated rack caging with food and water ad libitum. The mice were acclimated for at least 5 days prior to tumor implantation with tumor fragments.
Treatments were initiated on DPI 16.
Tumor size measurements were recorded twice weekly from the treatment initiation until the termination of the study.
Mean, standard deviation and standard error of the mean were determined for tumor volume for all animal groups at all assessments. Student's t test was performed on tumor volumes at each measurement day, including at the end of the study, to determine whether there were any statistically significant differences between combination treatment groups and single monotherapy treatment groups.

[1] = day 16, PM00104 0.90, cisplatin 3, irinotecan 10, paclitaxel 12.5 mg/kg/day
[2] = day 16, PM00104 0.90, cisplatin 5, irinotecan 18, paclitaxel 25 mg/kg/day
[3] = day 20, PM00104 0.90, cisplatin 3, irinotecan 10, paclitaxel 12.5 mg/kg/day
[4] = day 20, PM00104 0.90, cisplatin 5, irinotecan 18, paclitaxel 25 mg/kg/day
[5] = day 23, PM00104 0.90, cisplatin 3, irinotecan 10, paclitaxel 12.5 mg/kg/day
[6] = day 23, PM00104 0.90, cisplatin 5, irinotecan 18, paclitaxel 25 mg/kg/day
[7] = day 26, PM00104 0.90, cisplatin 3, irinotecan 10, paclitaxel 12.5 mg/kg/day
[8] = day 26, PM00104 0.90, cisplatin 5, irinotecan 18, paclitaxel 25 mg/kg/day
[9] = day 29, PM00104 0.90, cisplatin 3, irinotecan 10, paclitaxel 12.5 mg/kg/day
[10] = day 29, PM00104 0.90, cisplatin 5, irinotecan 18, paclitaxel 25 mg/kg/day
[11] = day 33, PM00104 0.90, cisplatin 3, irinotecan 10, paclitaxel 12.5 mg/kg/day
[12] = day 33, PM00104 0.90, cisplatin 5, irinotecan 18, paclitaxel 25 mg/kg/day
[13] = day 40, PM00104 0.90, cisplatin 3, irinotecan 10, paclitaxel 12.5 mg/kg/day
[14] = day 40, PM00104 0.90, cisplatin 5, irinotecan 18, paclitaxel 25 mg/kg/day
[15] = day 48, PM00104 0.90, cisplatin 3, irinotecan 10, paclitaxel 12.5 mg/kg/day
[16] = day 48, PM00104 0.90, cisplatin 5, irinotecan 18, paclitaxel 25 mg/kg/day

With `N.N.[Cl][Pt][Cl]` [Cisplatin, cisplatin] the “% Inhibition” value [1] was 1.6%, the “% T/C” value [1] was 98.4% and the “% Inhibition” value [2] was −0.5%. For the same compound, the “% T/C” value [2] was 100.5%, the “% Inhibition” value [3] was 6.6% and the “% T/C” value [3] was 93.4%. The “% Inhibition” value [4] was 2.2%, the “% T/C” value [4] was 97.8% and the “% Inhibition” value [5] was 17.0%. For the same compound, the “% T/C” value [5] was 83.0%, the “% Inhibition” value [6] was 24.7% and the “% T/C” value [6] was 75.3%. The “% Inhibition” value [7] was 18.5%, the “% T/C” value [7] was 81.5% and the “% Inhibition” value [8] was 40.1%. The “% T/C” value [8] was 59.9%, the “% Inhibition” value [9] was 27.0% and the “% T/C” value [9] was 73.0%. For the same compound, the “% Inhibition” value [10] was 45.7%, the “% T/C” value [10] was 54.3% and the “% Inhibition” value [11] was 31.4%. For the same compound, the “% T/C” value [11] was 68.6%, the “% Inhibition” value [12] was 60.5% and the “% T/C” value [12] was 39.5%. The “% Inhibition” value [13] was 44.7%, the “% T/C” value [13] was 55.3% and the “% Inhibition” value [14] was 76.2%. For the same compound, the “% T/C” value [14] was 23.8%, the “% Inhibition” value [15] was 50.8% and the “% T/C” value [15] was 49.2%. The “% Inhibition” value [16] was 82.9% and the “% T/C” value [16] was 17.1%.
